According to patent publication US4325960A, “6-Amidinopenicillanic acid derivatives including the radical of a β-lactamase inhibitor” (Leo Pharmaceutical Products Ltd. A/S (Lovens Kemiske Fabrik, priority 1979, dated 1982):
“And” between values parts separate entries of the source, which are not always exact repeats. Equal entries are not always repeated. Structures can show the parent of a compound that is named as a salt.

Assays:
[1] = in vivo; cited from earlier work
β-lactamases = details: cited from earlier work
[2] = human, in vivo, po
Description: Serum concentrations and urinary excretion of mecillinam in fasting
following oral administration of
B. 128 mg of VD-1825^x hydrochloride (corresponding to 100 mg of
pivmecillinam hydrochloride) in aqueous solution

[3] = Urinary excretion in 0 to 6 hours of penicillanic acid 1,1-dioxide in fasting volunteers following oral administration; format: in vivo, human
Description: Urinary excretion in 0 to 6 hours of penicillanic
acid 1,1-dioxide in fasting volunteers following
A. 60 mg of potassium penicillanate 1,1-dioxide
(corresponding to 52 mg of penicillanic acid
1,1-dioxide) in aqueous solution
B. 128 mg of VD-1825 hydrochloride (corresponding
to 49.0 mg of penicillanic acid 1,1-dioxide) in […]

In the case of `CC(C)(C)C(=O)OCOC(=O)[C@@H]1N2C(=O)C[C@H]2S(=O)(=O)C1(C)C`, the “Absorption from the gastro-intestinal tract on oral administration” value [1] is given as “absorbed much more slowly”.

For `CC1(C)[C@H](C(=O)O)N2C(=O)[C@H](Cl)[C@H]2S1(=O)=O` [6α-chloropenicillanic acid 1,1-dioxide], the β-lactamase inhibition (β-lactamases) is listed as “powerful inhibitors of a wide range of β-lactamases”.

For `CC1(C)S[C@@H]2[C@H](N=CN3CCCCCC3)C(=O)N2[C@H]1C(=O)OCOC(=O)[C@@H]1N2C(=O)C[C@H]2S(=O)(=O)C1(C)C` [VD-1825, 1,1-Dioxopenicillanoyloxymethyl 6-[(hexahydro-1H-azepin-1-yl)-methyleneamino]penicillanate hydrochloride], the “Urinary recovery of mecillinam compared with pivmecillinam” value [2] was “comparable to that following administration of pivmecillinam” and the “Absorption concluded from urinary recovery of penicillanic acid 1,1-dioxide” value ([3]; human, in vivo, po) was “efficient absorption”.

For `O=C(O)[C@H]1/C(=C/CO)O[C@@H]2CC(=O)N21` [clavulanic acid], the β-lactamase inhibition (β-lactamases) is listed as “β-lactamase inhibitors”.

In the case of `CC1(C)S[C@@H]2[C@H](N=CN3CCCCCC3)C(=O)N2[C@H]1C(=O)O` [mecillinam, 6-[(hexahydro-1H-azepin-1-yl)-methyleneamino]penicillanic acid], the “Absorption from the gastro-intestinal tract on oral administration” value [1] is listed as “incompletely absorbed, when given orally”.

For `COc1cccc(OC)c1C(=O)N[C@@H]1C(=O)N2[C@@H](C(=O)O)C(C)(C)S(=O)(=O)[C@H]12` [methicillin sulphone, 1,1-dioxo-6β-(2,6-dimethoxybenzamido)penicillanic acid], the β-lactamase inhibition (β-lactamases) is given as “powerful inhibitors of a wide range of β-lactamases”.

In the case of `CC1(C)[C@H](C(=O)O)N2C(=O)C[C@H]2S1(=O)=O` [penicillanic acid 1,1-dioxide], the β-lactamase inhibition (β-lactamases) is listed as “powerful inhibitors of a wide range of β-lactamases” and the “Absorption from the gastro-intestinal tract, cf. Table II” value ([3]; oral) is listed as “absorbed poorly or irregularly from the gastro-intestinal tract”.

With `CC1(C)[C@H](C(=O)[O-])N2C(=O)C[C@H]2S1(=O)=O.[K+]` [potassium penicillanate 1,1-dioxide] the “Urinary excretion of penicillanic acid 1,1-dioxide” value ([3]; 0 to 6 hours, individual subject, 60 mg potassium penicillanate 1,1-dioxide oral, aqueous solution, fasting, 360 min) was 2.4 % of dose and 3.2 % of dose and 7.7 % of dose and 5.2 % of dose and 2.9 % of dose, the “Urinary excretion of penicillanic acid 1,1-dioxide, mean” value ([3]; 0 to 6 hours, mean, 60 mg potassium penicillanate 1,1-dioxide oral, aqueous solution, fasting) was 4.3 % of dose and the dose excreted at 6 h ([3]; human, in vivo, po, 60 mg, 0 to 6 hours, mean, 60 mg potassium penicillanate 1,1-dioxide oral, aqueous solution, fasting) was 4.3%.

For `CC1(C)[C@H](C(=O)O)N2C(=O)[C@@H](NC(=O)c3nc4ccccc4nc3C(=O)O)[C@H]2S1(=O)=O` [quinacillin sulphone], the β-lactamase inhibition (β-lactamases) is listed as “powerful inhibitors of a wide range of β-lactamases”.
